From patent publication US6368785B1 (Global Hemostasis Institute MGR AB, priority 1997, dated 2002)
Counter-ions that a name gives are not always drawn. Like-named read-outs stand apart in the source and are kept apart here.

Columns and labels:
[1] = apparent dissociation constant of putative Ca*ligand complex from potentiometric Ca^2+ activity; format: physicochemical; details: 20 mM Hepes, pH 7.0 to 7.6, dilutions with 0.15 mM of NaCl, average of n determinations; for Kd: read-out: kd ± S.D.
Method: Bovine plasma deficient in vitamin K dependent coagulation factors and thromboplastin from rabbit brain were the corresponding components from PK-reagent GHI 129 detailed above. Ca^2+ activity and pH in plasma were determined potentiometrically with an ICA 2 (Radiometer, Copenhagen, Denmark) apparatus.
In order to identify compounds that could function as buffers for Ca^2+ at physiological levels, i.e. at about 1.3 mM of Ca^2+, water soluble compounds, either with reported dissociation constants in the range of 0.5 to 5 mM or otherwise appearing interesting, were experimentally investigated. Below, these compounds are referred to as Ca^2+ ligands or simply ligands. Experiments described below were performed to deduce the apparent dissociation constants under physiological like conditions and at ligand concentrations meaningful for Ca^2+ buffering.
Solution of 200 mM of ligand containing 20 mM of Hepes was adjusted to pH 7.4 and mixed with an equal volume of 100 mM of CaCl2 solution. These mixtures were diluted 1:2, 1:4, 1:8 and 1:16 with […]. […] From the experimentally determined Ca^2+ activity and the stoikiometric levels of ligand and Ca^2+, the apparent dissociation constant for a putative Ca*ligand complex was determined as the average of all available data.

[2] = cited from earlier work
[3] = addition of CaCl2 solution to anti-coagulant solutions to reach physiological Ca^2+; format: physicochemical; details: solutions of the Ca^2+ binding substance plus CaCl2
Excerpt: This gave rise to the idea that these substances could perform as anticoagulants also at near physiological levels of Ca^2+ activity. […] This was possible with iso-citrate but not with citrate. […] The following therefore only describes experiments with iso-citrate.

[4] = test system: prothrombin complex (coagulation factors VII, X and II); assay: coagulation time in prothrombin complex (PK) system with added citrate or iso-citrate; format: biochemical
Method: Activated partial thromboplastin time (APTT), prothrombin time (PT), prothrombin complex, (PK), assay, factor VIII and fibrin D-dimer were determined in compliance with manufacturers recommendations using the following reagents; PTT Automate, Diagnostica Stago, Asnieres-sur-Seine, France; Thromborel® S, Behring Diagnostics GmbH, Marburg, Germany; PK-reagent GHI 129, Global Hemostasis Institute MGR, Linköping, Sweden; and Coamatic® Factor VIII, Chromogenix, Mölndal, Sweden. The tests were performed on an Automated Coagulation Laboratory instrument, ACL, model 810 (Instrumentation Laboratory, Milan, Italy).
Coagulation analysis of blood and blood plasma are performed in many different ways. Most such analysis have the following in common. […] This Ca^2+ buffer capacity was determined in a system composed of sample, bovine plasma deficient in vitamin K dependent coagulation factors and rabbit brain thromboplastin. […] For each level of addition, the calcium ion buffering capacity of the analytical system was determined. The buffer capacity was determined at Ca^2+ activity in the range of 1 to 4 mM.
The assay response of the system described in Example 5 is investigated. […] The coagulation time is recorded. And after compacting of the coagulum by centrifugation for 3 minutes at 10,000×g, the Ca2+ activity is determined. […]

[5] = in 0.1 M KNO3, read-out: published estimate
[6] = prior art, at physiological conditions
[7] = in 0.1 M NaClO4, read-out: published estimate

In the case of `Nc1nc(N)c2[nH]cnc2n1` [2,6-diaminopurine], the Kd [1] is given as 50 ± 24 mM and the Kd [2, 5] is given as 1.6 mM.
In the case of `O=C(O)CN(CCN(CC(=O)O)CC(=O)O)CC(=O)O` [EDTA], the “apparent dissociation constant of Ca^2+ complexes” value [2, 6] is given as “considerably tighter”.
For `Nc1ncnc2nc[nH]c12` [adenine], the Kd [1] is listed as 70 ± 40 mM and the Kd [2, 5] is listed as 1.1 mM.
For `O=C(O)CC(O)(CC(=O)O)C(=O)O` [citrate, Tri-sodium citrate], the Kd [1] was 0.5 ± 0.05 mM, the “making solutions with physiological levels of Ca^2+ by adding CaCl2 solution” value [3] was “formed precipitates” and the “inhibition of coagulation (coagulation time) in PK system” value ([4]; 5, 10 or 20 mM added, Ca^2+ activity 0.7 to 9 mM) was “inhibit coagulation at all Ca^2+ activity levels”. For the same compound, the “inhibitory effect on coagulation time per molar unit, citrate versus iso-citrate” value ([4]; Ca^2+ activity of 1.5, FIG. 8) was “about twice as inhibitory as iso-citrate per molar unit”, the Kd ([2]; medium not given, read-out: published estimate) was 0.58 mM and the Kd ([2]; prior art, at physiological conditions, read-out: apparent dissociation constant of Ca^2+ complexes) was roughly 0.4 mM.
In the case of `CC(C)(C(=O)O)C(=O)O` [dimethylmalonate, dimethylmalonic acid], the Kd [2, 7] is given as 30.2 mM.
In the case of `O=C(O)CNCC(=O)O` [iminodiacetate], the Kd [1] is given as 29 ± 12 mM and the Kd ([2]; in 1 M KNO3, read-out: published estimate) is given as 8.1 mM.
In the case of `CC(C(=O)O)C(=O)O` [methylmalonate, methylmalonic acid], the Kd [1] is listed as 22 ± 3 mM and the Kd [2, 7] is listed as 22.4 mM.
For `O=C(O)C(=O)O` [oxalate, oxalic acid], the “kd ± S.D.” value [1] is listed as “oxalate (precipitated)”, the Kd [2, 5] is listed as 5 mM and the “apparent dissociation constant of Ca^2+ complexes” value [2, 6] is listed as “considerably tighter”.
For `O=C(O)c1ccccc1C(=O)O` [phthalate, phthalic acid], the Kd [1] is given as 26 ± 73 mM and the Kd ([2]; in 0.1 M KCl, read-out: published estimate) is given as 3.9 mM.
In the case of `O=C(O)/C=C(\CC(=O)O)C(=O)O` [trans-aconitate, trans-aconitic acid], the Kd [1] is reported as 29 ± 53 mM.
`O=C(O)CC(CC(=O)O)C(=O)O` [tricarballylate, tricarballylic acid] gave a Kd [1] of 22 ± 53 mM.
